According to the supplement of paper PMC10307832:

What was measured:
Experiment in all cases: relative viability (nuclei count vs DMSO), 5 days (fraction); higher = more cells survive
RAF265 + Tozasertib = compound: Cn1c(Nc2ccc(C(F)(F)F)cc2)nc2cc(Oc3ccnc(-c4ncc(C(F)(F)F)[nH]4)c3)ccc21 [RAF265] + Cc1cc(Nc2cc(N3CCN(C)CC3)nc(Sc3ccc(NC(=O)C4CC4)cc3)n2)n[nH]1 [Tozasertib] (partner 0.1 µM)
How it was run: (§1)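 Lung cancer cell lines were seeded in 1536-well plates and dosed by pin tool the next day, with either a single drug or a fixed anchor-drug dose combined with five library-drug doses (not always all listed) spaced in √10 steps. Five days later, one step fixed the cells and stained their nuclei (final 0.05% Triton X-100, 1% formaldehyde, 1 ug/ml Hoechst), and nuclei were counted on 4× images. Relative viability is the nuclei count in treated wells divided by the count in vehicle wells, and each value is the median of duplicate plates.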

RAF265 + Olaparib = compound: Cn1c(Nc2ccc(C(F)(F)F)cc2)nc2cc(Oc3ccnc(-c4ncc(C(F)(F)F)[nH]4)c3)ccc21 [RAF265] + O=C(c1cc(Cc2n[nH]c(=O)c3ccccc23)ccc1F)N1CCN(C(=O)C2CC2)CC1 [Olaparib] (partner 8 µM)
How it was run: as §1

IPA-3 + Vorinostat = compound: C1=CC=C2C(=C1)C=CC(=C2SSC3=C(C=CC4=CC=CC=C43)O)O [IPA-3] + O=C(CCCCCCC(=O)Nc1ccccc1)NO [Vorinostat] (partner 1 µM)
How it was run: as §1

IPA-3 + Pemetrexed = compound: C1=CC=C2C(=C1)C=CC(=C2SSC3=C(C=CC4=CC=CC=C43)O)O [IPA-3] + Nc1nc2[nH]cc(CCc3ccc(C(=O)N[C@@H](CCC(=O)O)C(=O)O)cc3)c2c(=O)[nH]1 [Pemetrexed] (partner 0.2 µM)
How it was run: as §1

Cell Line | relative viability (RAF265 + Tozasertib; first compound 0.01 µM) | relative viability (RAF265 + Tozasertib; first compound 0.03162 µM) | relative viability (RAF265 + Tozasertib; first compound 0.1 µM) | relative viability (RAF265 + Tozasertib; first compound 1 µM) | relative viability (RAF265 + Olaparib; first compound 0.01 µM) | relative viability (RAF265 + Olaparib; first compound 0.03162 µM) | relative viability (RAF265 + Olaparib; first compound 0.1 µM) | relative viability (RAF265 + Olaparib; first compound 0.3162 µM) | relative viability (RAF265 + Olaparib; first compound 1 µM) | relative viability (IPA-3 + Vorinostat; first compound 0.2 µM) | relative viability (IPA-3 + Vorinostat; first compound 0.6325 µM) | relative viability (IPA-3 + Vorinostat; first compound 2 µM) | relative viability (IPA-3 + Vorinostat; first compound 6.325 µM) | relative viability (IPA-3 + Vorinostat; first compound 20 µM) | relative viability (IPA-3 + Pemetrexed; first compound 0.2 µM) | relative viability (IPA-3 + Pemetrexed; first compound 0.6325 µM) | relative viability (IPA-3 + Pemetrexed; first compound 2 µM) | relative viability (IPA-3 + Pemetrexed; first compound 6.325 µM) | relative viability (IPA-3 + Pemetrexed; first compound 20 µM) | relative viability (RAF265 + Tozasertib; first compound 0.3162 µM)
NCI-H1793 | 0.404 | 0.421 | 0.361 | 0.172 | 0.898 | 0.755 | 0.724 | 0.382 | 0.268 | 1.12 | 0.714 | 0.64 | 0.712 | 0.687 | 1.33 | 0.736 | 0.927 | 0.923 | 0.632 | 
PC-3 [JPC-3] | 0.889 | 0.868 | 0.985 | 0.518 | 1.14 | 1.06 | 1.09 | 0.537 | 0.704 | 0.821 | 0.816 | 0.896 | 0.73 | 0.767 | 1.12 | 1.23 | 1.18 | 1.03 | 1.03 | 
H3255 | 0.553 | 0.54 | 0.605 | 0.476 | 0.589 | 0.568 | 0.538 |  | 0.454 | 1.05 | 0.759 | 0.801 | 0.791 | 0.967 | 0.572 | 0.551 | 0.561 | 0.527 | 0.548 | 
EMC-BAC-2 | 0.28 | 0.266 | 0.209 | 0.082 | 0.576 | 0.43 | 0.407 | 0.371 | 0.167 | 0.436 | 0.556 | 0.504 | 0.428 | 0.491 | 0.456 | 0.461 | 0.458 | 0.437 | 0.464 | 0.202
NCI-H522 | 0.57 | 0.602 | 0.546 | 0.521 | 0.791 | 0.695 | 0.737 | 0.728 | 0.57 | 0.879 | 0.897 | 0.854 | 0.894 | 1.06 | 1.02 | 0.772 | 0.855 | 1.08 | 1.13 | 0.553
CAL-12T | 0.392 | 0.308 | 0.364 | 0.172 | 0.84 | 0.645 | 0.677 | 0.592 | 0.593 | 1 | 0.58 | 0.773 | 0.762 | 1.13 | 1.21 | 0.983 | 0.942 | 1.26 | 1.24 | 0.306
NCI-H650 | 0.716 | 0.704 | 0.738 | 0.375 | 0.384 | 0.383 | 0.376 | 0.324 | 0.174 | 0.465 | 0.518 | 0.361 | 0.486 | 0.507 | 1.22 | 0.873 | 1.03 | 0.852 | 1.15 | 0.655
SK-MES-1 | 0.853 | 0.603 | 0.399 | 0.275 | 0.582 | 0.308 | 0.229 | 0.208 | 0.204 | 1.27 | 1.03 | 1.09 | 0.925 | 1.04 | 1.04 | 0.886 | 0.991 | 0.824 | 0.918 | 0.348
